Laboratory results: patent US11117892B2, “Pyrrolo-pyridine derivative compound, method for preparing same, and pharmaceutical composition containing same as active ingredient for prevention or treatment of protein kinase-related diseases” (DAEGU-GYEONGBUK MEDICAL INNOVATION FOUNDATION, priority 2017, dated 2021)

What was measured:
Test in all cases: scanMAX Kinase assay panel
Type in all cases: binding
AAK1 = AAK1 (Homo sapiens (Human), UniProt Q2M2I8); settings: read-out: % control
Summary of the method: (§1)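 scanMAX kinase panel screen. Normalisation: (cpd − pos ctrl)/(neg ctrl − pos ctrl) × 100. Neg ctrl is DMSO (100%); pos ctrl gives 0%.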

[1] = target: ABL1(Y253F)-phosphorylated (Homo sapiens (Human), UniProt P00519, Y253F); settings: read-out: % control
Summary of the method: as §1

AMPK-alpha2 = AMPK-alpha2 (Homo sapiens (Human), UniProt P54646); settings: read-out: % control
Summary of the method: as §1

BIKE = BIKE (Homo sapiens (Human), UniProt Q9NSY1); settings: read-out: % control
Summary of the method: as §1

BTK = BTK (Homo sapiens (Human), UniProt Q06187); settings: read-out: % control
BTK, sequence (Q06187 whole entry): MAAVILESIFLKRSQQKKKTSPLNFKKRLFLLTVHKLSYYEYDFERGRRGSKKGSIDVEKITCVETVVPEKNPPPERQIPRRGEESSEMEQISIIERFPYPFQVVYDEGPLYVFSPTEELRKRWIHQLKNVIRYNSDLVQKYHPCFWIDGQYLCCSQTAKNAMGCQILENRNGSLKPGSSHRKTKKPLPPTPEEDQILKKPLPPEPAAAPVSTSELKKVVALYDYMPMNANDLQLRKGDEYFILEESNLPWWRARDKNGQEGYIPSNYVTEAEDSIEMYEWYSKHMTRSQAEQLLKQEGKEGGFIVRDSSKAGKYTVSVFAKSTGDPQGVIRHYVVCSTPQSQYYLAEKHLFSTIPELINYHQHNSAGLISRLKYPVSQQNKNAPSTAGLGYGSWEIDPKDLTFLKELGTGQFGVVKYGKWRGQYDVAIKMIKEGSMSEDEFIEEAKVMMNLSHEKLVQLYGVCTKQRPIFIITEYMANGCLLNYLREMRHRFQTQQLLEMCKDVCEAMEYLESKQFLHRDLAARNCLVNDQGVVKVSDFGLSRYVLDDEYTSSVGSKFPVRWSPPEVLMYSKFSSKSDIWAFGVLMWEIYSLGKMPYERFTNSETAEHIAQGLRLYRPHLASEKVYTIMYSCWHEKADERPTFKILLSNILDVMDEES
Summary of the method: as §1

CAMK1B = CAMK1B (Homo sapiens (Human), UniProt Q6P2M8); settings: read-out: % control
Summary of the method: as §1

CDK3 = CDK3 (Homo sapiens (Human), UniProt Q00526); settings: read-out: % control
CDK3, sequence (Q00526 whole entry): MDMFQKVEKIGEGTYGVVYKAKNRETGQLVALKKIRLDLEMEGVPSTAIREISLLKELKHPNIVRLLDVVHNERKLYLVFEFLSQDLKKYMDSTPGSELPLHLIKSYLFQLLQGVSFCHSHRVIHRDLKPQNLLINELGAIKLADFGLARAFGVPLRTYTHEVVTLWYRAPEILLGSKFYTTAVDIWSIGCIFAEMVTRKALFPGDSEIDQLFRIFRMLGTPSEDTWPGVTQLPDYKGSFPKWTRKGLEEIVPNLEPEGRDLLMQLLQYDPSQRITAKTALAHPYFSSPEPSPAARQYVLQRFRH
Summary of the method: as §1

EPHA3 = EPHA3 (Homo sapiens (Human), UniProt P29320); settings: read-out: % control
Summary of the method: as §1

ERBB2 = ERBB2 (Homo sapiens (Human), UniProt P04626); settings: read-out: % control
Summary of the method: as §1

FGFR2 = FGFR2 (Homo sapiens (Human), UniProt P21802); settings: read-out: % control
FGFR2, sequence (P21802 22-821): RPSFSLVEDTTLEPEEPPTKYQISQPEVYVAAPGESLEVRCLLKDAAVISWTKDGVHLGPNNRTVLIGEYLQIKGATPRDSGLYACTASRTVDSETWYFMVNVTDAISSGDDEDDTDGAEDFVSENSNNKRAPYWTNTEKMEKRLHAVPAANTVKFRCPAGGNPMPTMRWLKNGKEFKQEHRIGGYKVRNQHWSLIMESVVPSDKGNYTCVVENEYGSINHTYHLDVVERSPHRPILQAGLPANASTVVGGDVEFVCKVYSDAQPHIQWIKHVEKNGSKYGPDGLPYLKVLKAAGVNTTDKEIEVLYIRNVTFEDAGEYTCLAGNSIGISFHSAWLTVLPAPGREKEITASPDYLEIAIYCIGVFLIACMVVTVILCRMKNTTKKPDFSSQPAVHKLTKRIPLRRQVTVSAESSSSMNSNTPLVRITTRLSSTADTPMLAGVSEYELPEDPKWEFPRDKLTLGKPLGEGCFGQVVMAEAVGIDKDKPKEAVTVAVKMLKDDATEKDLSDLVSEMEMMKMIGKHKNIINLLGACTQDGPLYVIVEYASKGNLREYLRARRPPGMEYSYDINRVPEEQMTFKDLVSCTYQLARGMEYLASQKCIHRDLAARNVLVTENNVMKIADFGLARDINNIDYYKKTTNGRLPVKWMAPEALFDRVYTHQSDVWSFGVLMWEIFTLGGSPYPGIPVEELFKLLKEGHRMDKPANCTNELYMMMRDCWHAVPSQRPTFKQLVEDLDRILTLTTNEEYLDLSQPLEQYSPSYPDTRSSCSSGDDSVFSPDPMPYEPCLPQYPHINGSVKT
Summary of the method: as §1

FLT3(ITD) = settings: 1 uM
Summary of the method: as §1

FYN = FYN (Homo sapiens (Human), UniProt P06241); settings: read-out: % control
Summary of the method: as §1

GRK7 = GRK7 (Homo sapiens (Human), UniProt Q8WTQ7); settings: read-out: % control
Summary of the method: as §1

IGF1R = IGF1R (Homo sapiens (Human), UniProt P08069); settings: read-out: % control
Summary of the method: as §1

KIT(V559D, T670I) = KIT(V559D, T670I) (Homo sapiens (Human), UniProt P10721, T670I/V559D); settings: read-out: % control
Summary of the method: as §1

KIT(V559D, V654A) = KIT(V559D, V654A) (Homo sapiens (Human), UniProt P10721, V559D/V654A); settings: read-out: % control
Summary of the method: as §1

LIMK1 = LIMK1 (Homo sapiens (Human), UniProt P53667); settings: read-out: % control
Summary of the method: as §1

LKB1 = LKB1 (Homo sapiens (Human), UniProt Q15831); settings: read-out: % control
Summary of the method: as §1

MLK1 = MLK1 (Homo sapiens (Human), UniProt P80192); settings: read-out: % control
Summary of the method: as §1

MLK2 = MLK2 (Homo sapiens (Human), UniProt Q02779); settings: read-out: % control
Summary of the method: as §1

MST1 = MST1 (Homo sapiens (Human), UniProt Q13043); settings: read-out: % control
Summary of the method: as §1

NDR2 = NDR2 (Homo sapiens (Human), UniProt Q9Y2H1); settings: read-out: % control
Summary of the method: as §1

NEK7 = NEK7 (Homo sapiens (Human), UniProt Q8TDX7); settings: read-out: % control
Summary of the method: as §1

PIK3CA = PIK3CA (Homo sapiens (Human), UniProt P42336); settings: read-out: % control
Summary of the method: as §1

PLK3 = PLK3 (Homo sapiens (Human), UniProt Q9H4B4); settings: read-out: % control
Summary of the method: as §1

RET(V804L) = RET(V804L) (Homo sapiens (Human), UniProt P07949, V804L); settings: read-out: % control
Summary of the method: as §1

ROCK1 = ROCK1 (Homo sapiens (Human), UniProt Q13464); settings: read-out: % control
Summary of the method: as §1

[2] = target: RSK2(Kin.Dom.2-C-terminal) (Homo sapiens (Human), UniProt P51812); settings: read-out: % control
RSK2(Kin.Dom.2-C-terminal), sequence (P51812 422-679): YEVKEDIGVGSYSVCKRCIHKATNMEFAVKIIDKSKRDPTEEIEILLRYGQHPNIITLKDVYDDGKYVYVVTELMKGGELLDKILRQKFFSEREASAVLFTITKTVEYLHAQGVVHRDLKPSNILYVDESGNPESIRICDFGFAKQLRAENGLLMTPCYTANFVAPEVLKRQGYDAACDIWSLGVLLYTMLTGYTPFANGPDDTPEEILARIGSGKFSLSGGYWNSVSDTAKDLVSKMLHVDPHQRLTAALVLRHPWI
Summary of the method: as §1

[3] = target: RSK4(Kin.Dom.1-N-terminal) (Homo sapiens (Human), UniProt Q9UK32); settings: read-out: % control
RSK4(Kin.Dom.1-N-terminal), sequence (Q9UK32 73-330): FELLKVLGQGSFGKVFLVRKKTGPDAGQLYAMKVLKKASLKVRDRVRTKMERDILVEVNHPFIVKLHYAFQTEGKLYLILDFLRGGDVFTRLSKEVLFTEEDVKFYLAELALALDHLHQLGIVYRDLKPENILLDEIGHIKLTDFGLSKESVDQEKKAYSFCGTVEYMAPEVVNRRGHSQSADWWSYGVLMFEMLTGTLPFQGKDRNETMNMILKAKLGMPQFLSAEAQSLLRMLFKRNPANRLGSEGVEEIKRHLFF
Summary of the method: as §1

[4] = target: RSK4(Kin.Dom.2-C-terminal) (Homo sapiens (Human), UniProt Q9UK32); settings: read-out: % control
RSK4(Kin.Dom.2-C-terminal), sequence (Q9UK32 426-683): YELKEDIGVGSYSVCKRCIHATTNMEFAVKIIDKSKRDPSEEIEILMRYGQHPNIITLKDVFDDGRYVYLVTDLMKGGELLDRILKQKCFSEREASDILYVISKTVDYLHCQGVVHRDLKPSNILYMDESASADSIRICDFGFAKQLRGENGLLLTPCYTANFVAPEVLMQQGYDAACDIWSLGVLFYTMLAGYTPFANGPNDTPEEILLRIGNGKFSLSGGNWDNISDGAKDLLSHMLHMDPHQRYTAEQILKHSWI
Summary of the method: as §1

SRPK2 = SRPK2 (Homo sapiens (Human), UniProt P78362); settings: read-out: % control
Summary of the method: as §1

STK39 = STK39 (Homo sapiens (Human), UniProt Q9UEW8); settings: read-out: % control
Summary of the method: as §1

TAK1 = TAK1 (Homo sapiens (Human), UniProt O43318); settings: read-out: % control
TAK1, sequence (O43318 whole entry): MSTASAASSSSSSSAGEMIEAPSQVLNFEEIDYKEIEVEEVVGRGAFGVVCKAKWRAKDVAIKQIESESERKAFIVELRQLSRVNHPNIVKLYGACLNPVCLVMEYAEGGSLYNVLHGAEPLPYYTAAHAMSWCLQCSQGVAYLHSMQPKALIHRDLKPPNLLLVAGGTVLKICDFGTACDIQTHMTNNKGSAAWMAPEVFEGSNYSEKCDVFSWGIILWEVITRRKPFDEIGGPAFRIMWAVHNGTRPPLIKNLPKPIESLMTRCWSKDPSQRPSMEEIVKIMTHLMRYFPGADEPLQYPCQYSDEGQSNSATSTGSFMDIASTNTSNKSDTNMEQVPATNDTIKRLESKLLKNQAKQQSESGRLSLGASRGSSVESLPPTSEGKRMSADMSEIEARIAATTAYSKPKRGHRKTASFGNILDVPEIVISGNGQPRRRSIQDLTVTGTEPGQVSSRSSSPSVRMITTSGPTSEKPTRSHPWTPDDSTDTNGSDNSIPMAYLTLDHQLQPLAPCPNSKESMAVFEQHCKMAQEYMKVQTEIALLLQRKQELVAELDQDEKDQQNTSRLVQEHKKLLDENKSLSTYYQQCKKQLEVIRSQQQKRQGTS
Summary of the method: as §1

TAOK2 = TAOK2 (Homo sapiens (Human), UniProt Q9UL54); settings: read-out: % control
TAOK2, sequence (Q9UL54 whole entry): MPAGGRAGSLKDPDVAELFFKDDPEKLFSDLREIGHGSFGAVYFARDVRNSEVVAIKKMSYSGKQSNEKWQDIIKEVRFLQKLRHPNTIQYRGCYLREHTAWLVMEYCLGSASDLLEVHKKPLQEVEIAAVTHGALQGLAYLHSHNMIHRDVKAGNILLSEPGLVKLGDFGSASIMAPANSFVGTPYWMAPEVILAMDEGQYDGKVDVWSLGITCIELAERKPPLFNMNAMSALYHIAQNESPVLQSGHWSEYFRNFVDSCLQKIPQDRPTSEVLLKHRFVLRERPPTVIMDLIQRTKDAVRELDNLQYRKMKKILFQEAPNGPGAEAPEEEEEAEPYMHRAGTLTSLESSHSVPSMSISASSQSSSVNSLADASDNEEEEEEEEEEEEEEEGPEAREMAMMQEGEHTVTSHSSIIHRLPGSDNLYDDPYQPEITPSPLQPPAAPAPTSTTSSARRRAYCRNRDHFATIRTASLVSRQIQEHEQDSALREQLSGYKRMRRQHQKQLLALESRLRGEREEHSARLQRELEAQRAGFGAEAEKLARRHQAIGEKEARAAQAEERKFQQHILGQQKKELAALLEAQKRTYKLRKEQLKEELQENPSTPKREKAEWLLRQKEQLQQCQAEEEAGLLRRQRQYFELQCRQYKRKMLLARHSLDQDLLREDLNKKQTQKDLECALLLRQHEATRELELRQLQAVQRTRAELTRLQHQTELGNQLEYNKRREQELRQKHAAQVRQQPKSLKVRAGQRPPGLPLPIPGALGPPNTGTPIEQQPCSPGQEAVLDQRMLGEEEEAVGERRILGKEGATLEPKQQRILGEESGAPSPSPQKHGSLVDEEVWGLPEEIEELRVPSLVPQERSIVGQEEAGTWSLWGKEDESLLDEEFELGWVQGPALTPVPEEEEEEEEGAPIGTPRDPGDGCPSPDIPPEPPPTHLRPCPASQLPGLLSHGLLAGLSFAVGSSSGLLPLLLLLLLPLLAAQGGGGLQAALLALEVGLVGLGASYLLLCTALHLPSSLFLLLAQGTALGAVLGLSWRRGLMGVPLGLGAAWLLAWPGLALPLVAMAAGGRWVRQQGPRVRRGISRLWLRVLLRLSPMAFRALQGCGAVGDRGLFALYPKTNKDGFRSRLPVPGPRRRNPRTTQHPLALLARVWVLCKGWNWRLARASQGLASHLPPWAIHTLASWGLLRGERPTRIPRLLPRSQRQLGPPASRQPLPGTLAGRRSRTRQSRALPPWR
Summary of the method: as §1

TGFBR1 = TGFBR1 (Homo sapiens (Human), UniProt P36897); settings: read-out: % control
TGFBR1, sequence (P36897 34-503): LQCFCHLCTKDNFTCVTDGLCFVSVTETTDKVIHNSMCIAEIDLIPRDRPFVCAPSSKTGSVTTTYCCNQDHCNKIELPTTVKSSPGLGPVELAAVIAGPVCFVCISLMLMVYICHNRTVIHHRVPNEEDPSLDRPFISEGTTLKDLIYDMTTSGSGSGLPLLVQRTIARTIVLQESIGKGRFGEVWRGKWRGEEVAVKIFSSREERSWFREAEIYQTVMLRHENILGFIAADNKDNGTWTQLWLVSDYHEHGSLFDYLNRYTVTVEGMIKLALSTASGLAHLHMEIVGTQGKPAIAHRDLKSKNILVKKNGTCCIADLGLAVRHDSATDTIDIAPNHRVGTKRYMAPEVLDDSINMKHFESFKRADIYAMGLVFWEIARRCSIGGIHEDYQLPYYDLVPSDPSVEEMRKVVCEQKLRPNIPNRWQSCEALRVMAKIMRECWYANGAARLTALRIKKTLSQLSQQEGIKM
Summary of the method: as §1

TIE2 = TIE2 (Homo sapiens (Human), UniProt Q02763); settings: read-out: % control
Summary of the method: as §1

TNK2 = TNK2 (Homo sapiens (Human), UniProt Q07912); settings: read-out: % control
Summary of the method: as §1

WNK3 = WNK3 (Homo sapiens (Human), UniProt Q9BYP7); settings: read-out: % control
Summary of the method: as §1

YES = YES (Homo sapiens (Human), UniProt P07947); settings: read-out: % control
Summary of the method: as §1

| SMILES | remaining binding at 1 µM (AAK1) [%] | remaining binding at 1 µM [1] [%] | remaining binding at 1 µM (AMPK-alpha2) [%] | remaining binding at 1 µM (BIKE) [%] | remaining binding at 1 µM (BTK) [%] | remaining binding at 1 µM (CAMK1B) [%] | remaining binding at 1 µM (CDK3) [%] | remaining binding at 1 µM (EPHA3) [%] | remaining binding at 1 µM (ERBB2) [%] | remaining binding at 1 µM (FGFR2) [%] | % control (FLT3(ITD)) [%] | remaining binding at 1 µM (FYN) [%] | remaining binding at 1 µM (GRK7) [%] | remaining binding at 1 µM (IGF1R) [%] | remaining binding at 1 µM (KIT(V559D, T670I)) [%] | remaining binding at 1 µM (KIT(V559D, V654A)) [%] | remaining binding at 1 µM (LIMK1) [%] | remaining binding at 1 µM (LKB1) [%] | remaining binding at 1 µM (MLK1) [%] | remaining binding at 1 µM (MLK2) [%] | further results |
| --- | --- | --- | --- | --- | --- | --- | --- | --- | --- | --- | --- | --- | --- | --- | --- | --- | --- | --- | --- | --- | --- |
| CCNc1cc(Nc2ccc(C(=O)N3CCC(N4CCOCC4)CC3)cc2OC)nc2[nH]cc(C#N)c12 [Example 18, 4-(ethylamino)-6-((2-methoxy-4-(4-morpholinopiperidine-1-carbonyl)phenyl)amino)-1H-pyrrolo[2,3-b]pyridine-3-carbonitrile] | 69 | 89 | 100 | 90 | 99 | 34 | 97 | 93 | 99 | 85 | 92 | 78 | 96 | 74 | 48 | 97 | 92 | 62 | 100 | 72 | remaining binding at 1 µM (MST1): 99%; remaining binding at 1 µM (NDR2): 95%; remaining binding at 1 µM (NEK7): 89%; remaining binding at 1 µM (PIK3CA): 100%; remaining binding at 1 µM (PLK3): 79%; remaining binding at 1 µM (RET(V804L)): 97%; remaining binding at 1 µM (ROCK1): 9.1%; remaining binding at 1 µM [2]: 100%; remaining binding at 1 µM [3]: 81%; remaining binding at 1 µM [4]: 71%; remaining binding at 1 µM (SRPK2): 100%; remaining binding at 1 µM (STK39): 26%; remaining binding at 1 µM (TAK1): 59%; remaining binding at 1 µM (TAOK2): 77%; remaining binding at 1 µM (TGFBR1): 100%; remaining binding at 1 µM (TIE2): 82%; remaining binding at 1 µM (TNK2): 92%; remaining binding at 1 µM (WNK3): 82%; remaining binding at 1 µM (YES): 90% |
| CCNc1cc(Nc2ccc(C(=O)N3CCC(N4CCOCC4)CC3)cc2OC)nc2[nH]cc(C(F)(F)F)c12 [Example 57, (4-((4-(ethylamino)-3-(trifluoromethyl)-1H-pyrrolo[2,3-b]pyridin-6-yl)amino)-3-methoxyphenyl) (4-morpholinopiperidin-1-yl)methanone] | 54 | 100 | 98 | 85 | 100 | 81 | 94 | 100 | 73 | 72 | 79 | 87 | 84 | 71 | 78 | 84 | 99 | 92 | 100 | 77 | remaining binding at 1 µM (MST1): 76%; remaining binding at 1 µM (NDR2): 80%; remaining binding at 1 µM (NEK7): 85%; remaining binding at 1 µM (PIK3CA): 87%; remaining binding at 1 µM (PLK3): 98%; remaining binding at 1 µM (RET(V804L)): 91%; remaining binding at 1 µM (ROCK1): 100%; remaining binding at 1 µM [2]: 100%; remaining binding at 1 µM [3]: 100%; remaining binding at 1 µM [4]: 80%; remaining binding at 1 µM (SRPK2): 100%; remaining binding at 1 µM (STK39): 43%; remaining binding at 1 µM (TAK1): 79%; remaining binding at 1 µM (TAOK2): 85%; remaining binding at 1 µM (TGFBR1): 69%; remaining binding at 1 µM (TIE2): 89%; remaining binding at 1 µM (TNK2): 86%; remaining binding at 1 µM (WNK3): 100%; remaining binding at 1 µM (YES): 83% |
